Experimental data reported in US6831086B1, “Process for the inactivation of viruses with the aid of acridine derivatives” (ZLB Behring GmbH, priority 1994, dated 2004).

Experiments:
IBRV = assay: Inactivation of IBRV, infectiousness titration; format: cell-based, Infectious bovine rhinotracheitis virus; details: for Titer reduction / Treatment titer: 45° C.
Haemate ® Factor VIII = assay: Clotting activity of Haemate after virus inactivation; format: biochemical; details: for Activity (clotting activity): Haemate ® Factor VIII, 3 hours 37° C.
Beriplex ® Factor II = Beriplex ® Factor II (Homo sapiens, UniProt P00734); assay: Clotting activity of Beriplex after virus inactivation; format: biochemical; details: 3 hours 37° C.
BVDV = assay: Inactivation of BVDV, infectiousness titration; format: cell-based, Bovine viral diarrhoea virus; details: Venimmun + BVDV; Acriflavine 0.001 mg/ml; 37° C.; 3 h
PPV = assay: Inactivation of PPV, infectiousness titration; format: cell-based, Porcine parvovirus
CPV = assay: Inactivation of CPV in protein solutions, infectiousness titration; format: cell-based, Canine parvovirus; details: Acriflavine 0.001 mg/ml
PI3 virus = assay: Inactivation of PI3 virus, infectiousness titration; format: cell-based, Bovine parainfluenza 3 virus; details: 37° C.; for Virus inactivation: EME medium
BPV = assay: Inactivation of BPV, infectiousness titration; format: cell-based, Bovine parvovirus; details: for Virus inactivation: BPV, 45° C.
[1] = system: envelope-containing and nonenveloped virus species; format: cell-based
[2] = Beriplex + PPV, Acriflavine 0.001 mg/ml, 30° C., 0 h
[3] = Beriplex + PPV, Acriflavine 0.001 mg/ml, 30° C., 1 h
[4] = Beriplex + PPV, Acriflavine 0.001 mg/ml, 30° C., 2 h
[5] = Beriplex + PPV, Acriflavine 0.001 mg/ml, 30° C., 3 h
[6] = Beriplex + PPV, Acriflavine 0.001 mg/ml, 37° C., 3 h
[7] = Haemate + PPV, Acriflavine 0.001 mg/ml, 37° C., 3 h
[8] = Beriplex + PPV, BACI 0.001 mg/ml, 30° C., 0 h
[9] = Beriplex + PPV, BACI 0.001 mg/ml, 30° C., 1 h
[10] = Beriplex + PPV, BACI 0.001 mg/ml, 30° C., 2 h
[11] = Beriplex + PPV, BACI 0.001 mg/ml, 30° C., 3 h
[12] = Beriplex + PPV, BACI 0.01 mg/ml, 37° C., 0 h
[13] = Beriplex + PPV, BACI 0.01 mg/ml, 37° C., 1 h
[14] = Beriplex + PPV, BACI 0.01 mg/ml, 37° C., 2 h
[15] = Beriplex + PPV, BACI 0.01 mg/ml, 37° C., 3 h

With `CCOc1ccc2nc3cc(N)ccc3c(N)c2c1` [Ethacridine lactate] the Titer reduction (IBRV; 0 h) was 0 log10/ml, the Treatment titer (IBRV; 0 h) was 6.5 log10/ml and the Titer reduction (IBRV; 1 h) was 3.7 log10/ml. The Treatment titer (IBRV; 1 h) was 2.0 log10/ml, the Titer reduction (IBRV; 2 h) was “≧2.8 log10/ml” and the Treatment titer (IBRV; 2 h) was “≦1.5 log10/ml”.
“3,6-diamino-10-methylacridinium, chloride and 3,6-acridineidiamine [Acriflavine]” was tested, and the “Activity (clotting activity)” value (Haemate ® Factor VIII; A 0.001 mg/ml) was 16.8 IU/ml, the “Activity (clotting activity)” value (Haemate ® Factor VIII; A 0.002 mg/ml) was 18.9 IU/ml and the “Activity (clotting activity)” value (Beriplex ® Factor II; A 0.001 mg/ml) was 50.0 IU/ml. For the same compound, the “Activity (clotting activity)” value (Beriplex ® Factor II; A 0.002 mg/ml) was 48.8 IU/ml, the Titer reduction (BVDV) was “≧6.0 log10/ml” and the Treatment titer (BVDV) was 0 log10/ml. It also gave a Titer reduction (PPV; [2]) of 0 log10/ml, a Treatment titer (PPV; [2]) of 4.8 log10/ml and a Titer reduction (PPV; [3]) of 1.0 log10/ml. It also gave a Treatment titer (PPV; [3]) of 3.6 log10/ml, a Titer reduction (PPV; [4]) of 1.7 log10/ml and a Treatment titer (PPV; [4]) of 2.9 log10/ml. The Titer reduction (PPV; [5]) was “≧3.3 log10/ml”, the Treatment titer (PPV; [5]) was “≦1.5 log10/ml” and the Titer reduction (PPV; [6]) was “≧3.3 log10/ml”. For the same compound, the Treatment titer (PPV; [6]) was “≦1.5 log10/ml”, the Titer reduction (PPV; [7]) was “≧3.8 log10/ml” and the Treatment titer (PPV; [7]) was “≦1.5 log10/ml”. It also gave a Virus inactivation (IBRV; 37° C., 2 hours) of 3.3 log10/ml, a Titer reduction (CPV; FCS + CPV, 37° C., 3 h) of 3.5 log10/ml and a Treatment titer (CPV; FCS + CPV, 37° C., 3 h) of 3.4 log10/ml. The Titer reduction (CPV; FCS + CPV, 45° C., 0 h) was 0 log10/ml, the Treatment titer (CPV; FCS + CPV, 45° C., 0 h) was 6.8 log10/ml and the Titer reduction (CPV; FCS + CPV, 45° C., 1 h) was 2.0 log10/ml. The Treatment titer (CPV; FCS + CPV, 45° C., 1 h) was 4.8 log10/ml, the Titer reduction (CPV; FCS + CPV, 45° C., 2 h) was 3.3 log10/ml and the Treatment titer (CPV; FCS + CPV, 45° C., 2 h) was 3.5 log10/ml. For the same compound, the Titer reduction (CPV; FCS + CPV, 45° C., 3 h) was 4.2 log10/ml, the Treatment titer (CPV; FCS + CPV, 45° C., 3 h) was 2.8 log10/ml and the Titer reduction (CPV; Venimmun + CPV, 37° C., 3 h) was 3.0 log10/ml. It also gave a Treatment titer (CPV; Venimmun + CPV, 37° C., 3 h) of 3.9 log10/ml.
With Benzalkonium chloride [BACI] the “Activity (clotting activity)” value (Haemate ® Factor VIII; BACI 0.02 mg/ml) was 20.7 IU/ml, the Virus inactivation (PI3 virus; BACI 0.005 mg/ml, 0-0.03 h) was “≧5.9 log10/ml” and the Virus inactivation (PI3 virus; BACI 0.0125 mg/ml, 0-0.03 h) was 0.5 log10/ml. The Virus inactivation (PI3 virus; BACI 0.0125 mg/ml, 1 h) was 1.3 log10/ml, the Virus inactivation (PI3 virus; BACI 0.025 mg/ml, 0-0.03 h) was 1.4 log10/ml and the Virus inactivation (PI3 virus; BACI 0.025 mg/ml, 1 h) was “≧5.3 log10/ml”. For the same compound, the Virus inactivation (PI3 virus; BACI 0.05 mg/ml, 1 h) was “≧5.3 log10/ml”, the Virus inactivation (PI3 virus; BACI 0.1 mg/ml, 0-0.03 h) was “≧5.9 log10/ml” and the Virus inactivation (PI3 virus; BACI 0.1 mg/ml, 1 h) was “≧5.3 log10/ml”. The “Inactivation of PI3 virus, in words” value (PI3 virus; high doses of BACI (0.1 mg/ml, 0.05 mg/ml), time needed to mix, sample and titrate) was “infectious virus was no longer detectable”, the “Activity (clotting activity)” value (Beriplex ® Factor II; BACI 0.02 mg/ml) was 61.3 IU/ml and the Virus inactivation (BPV; BACI 0.01 mg/ml, 1 hour) was 0 log10/ml. It also gave a Virus inactivation (BPV; BACI 0.01 mg/ml, 2 hours) of 0 log10/ml, a Virus inactivation (BPV; BACI 0.05 mg/ml, 1 hour) of 0 log10/ml and a Virus inactivation (BPV; BACI 0.05 mg/ml, 2 hours) of 0 log10/ml. The “Inactivation of BPV, in words” value (BPV; test conditions of Table 2, 45° C., 1 or 2 hours) was “not inactivated”, the Titer reduction (PPV; [8]) was 0 log10/ml and the Treatment titer (PPV; [8]) was 4.8 log10/ml. For the same compound, the Titer reduction (PPV; [9]) was 0 log10/ml, the Treatment titer (PPV; [9]) was 4.8 log10/ml and the Titer reduction (PPV; [10]) was 0 log10/ml. The Treatment titer (PPV; [10]) was 4.8 log10/ml, the Titer reduction (PPV; [11]) was 0 log10/ml and the Treatment titer (PPV; [11]) was 4.6 log10/ml. The Titer reduction (PPV; [12]) was 0 log10/ml, the Treatment titer (PPV; [12]) was 4.8 log10/ml and the Titer reduction (PPV; [13]) was 0 log10/ml. It also gave a Treatment titer (PPV; [13]) of 4.6 log10/ml, a Titer reduction (PPV; [14]) of 0 log10/ml and a Treatment titer (PPV; [14]) of 4.6 log10/ml. For the same compound, the Titer reduction (PPV; [15]) was 0.2 log10/ml, the Treatment titer (PPV; [15]) was 4.6 log10/ml and the “Virus species inactivated, in words” value [1] was “only envelope-containing viruses can be, inactivated”.
With “Haemate®: Concentrate from clotting factor VIII and Von-Willebrand factor, pasteurized (Behringwerke AG)” the “Activity decrease of clotting preparation after acridines/benzalkonium chloride inactivation, in words” value (Haemate ® Factor VIII; Table 7) was “tolerable”.
